In ChEMBL document CHEMBL1201862, “PubChem BioAssay data set” (2004):
Several values for one entry are separate records, joined by “and”; a condition that tells them apart may be missing. Identical values can stand only once. Activity calls are given as the source filed them.

Columns and labels:
[1] = molecular target: Cytochrome P450 3A4 (Homo sapiens, UniProt P08684);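 also: CYP3A4 tested as one member of a cytochrome P450 panel screen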
[2] = test system: H4; assay: Luminescence Cell-Based Dose Response HTS to Identify Activators of 5'UTR Stem-Loop Driven Prion Protein mRNA Translation in H4 Neuroglioblastoma Cells. [Related pubchem assays: 1829 (Project Summary), 1814 (Primary HTS)]; type: functional; details: Homo sapiens
[3] = Shn3 3'UTR reporter inhibitors, dose response, cell-based, Clone20 osteoblasts, firefly luciferase, cherry-picked (AID 624132); type: functional;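 also: firefly luciferase luminescence from reporter carrying the Shn3 3'UTR in osteoblasts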
[4] = NIH-3T3 fibroblast cytotoxicity, dose response, cytotoxicity control, cell-based, fluorescence, Alamar Blue, secondary assay (AID 2327); type: functional;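 also: NIH-3T3 mouse fibroblasts cultured with fluconazole at 8 µg/mL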
[5] = C. albicans growth with fluconazole, confirmation, fluorescence, retest (AID 2467); type: functional, cell-based
[6] = molecular target: Cytochrome P450 2C9 (Homo sapiens, UniProt P11712)
Cytochrome P450 2C9, sequence (P11712 whole entry): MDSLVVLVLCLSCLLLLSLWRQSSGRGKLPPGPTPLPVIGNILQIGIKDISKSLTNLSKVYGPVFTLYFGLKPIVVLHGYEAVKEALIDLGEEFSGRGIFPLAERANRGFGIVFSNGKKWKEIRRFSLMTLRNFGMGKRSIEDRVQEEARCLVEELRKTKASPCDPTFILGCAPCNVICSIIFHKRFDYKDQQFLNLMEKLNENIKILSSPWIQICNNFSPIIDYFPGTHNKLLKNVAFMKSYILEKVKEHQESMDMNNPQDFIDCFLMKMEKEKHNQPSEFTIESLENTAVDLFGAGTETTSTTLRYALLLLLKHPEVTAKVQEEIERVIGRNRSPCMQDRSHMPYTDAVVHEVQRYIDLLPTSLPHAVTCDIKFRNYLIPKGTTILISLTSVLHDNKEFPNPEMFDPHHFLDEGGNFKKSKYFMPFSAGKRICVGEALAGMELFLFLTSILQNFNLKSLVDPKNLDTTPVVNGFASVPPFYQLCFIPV

[7] = molecular target: T1, Cytochrome P450 1A2 (Homo sapiens, UniProt P05177);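 also: PubChem cytochrome P450 panel assay, CYP1A2 panel member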
T1 sequence (P05177 whole entry): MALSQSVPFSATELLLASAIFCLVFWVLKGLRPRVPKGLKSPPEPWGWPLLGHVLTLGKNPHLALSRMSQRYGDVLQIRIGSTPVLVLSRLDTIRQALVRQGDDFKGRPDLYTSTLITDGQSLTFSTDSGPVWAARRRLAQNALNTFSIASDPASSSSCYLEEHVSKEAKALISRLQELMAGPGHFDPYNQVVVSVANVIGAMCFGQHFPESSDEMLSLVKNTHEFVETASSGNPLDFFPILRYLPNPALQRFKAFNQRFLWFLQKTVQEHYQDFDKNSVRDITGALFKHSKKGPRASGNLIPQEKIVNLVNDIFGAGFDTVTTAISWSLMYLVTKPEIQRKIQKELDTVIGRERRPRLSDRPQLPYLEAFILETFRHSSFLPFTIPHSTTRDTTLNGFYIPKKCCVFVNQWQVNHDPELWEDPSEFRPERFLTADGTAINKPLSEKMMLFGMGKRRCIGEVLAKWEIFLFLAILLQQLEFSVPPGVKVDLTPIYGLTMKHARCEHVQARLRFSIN

[8] = molecular target: Cytochrome P450 2C19 (Homo sapiens, UniProt P33261); assay: Cytochrome panel assay with activity outcomes. Panel member name: p450-cyp2c19 Compounds with AC50 equal or less than 10 uM are considered active; type: functional; details: read-out: AC50
Cytochrome P450 2C19, sequence (P33261 whole entry): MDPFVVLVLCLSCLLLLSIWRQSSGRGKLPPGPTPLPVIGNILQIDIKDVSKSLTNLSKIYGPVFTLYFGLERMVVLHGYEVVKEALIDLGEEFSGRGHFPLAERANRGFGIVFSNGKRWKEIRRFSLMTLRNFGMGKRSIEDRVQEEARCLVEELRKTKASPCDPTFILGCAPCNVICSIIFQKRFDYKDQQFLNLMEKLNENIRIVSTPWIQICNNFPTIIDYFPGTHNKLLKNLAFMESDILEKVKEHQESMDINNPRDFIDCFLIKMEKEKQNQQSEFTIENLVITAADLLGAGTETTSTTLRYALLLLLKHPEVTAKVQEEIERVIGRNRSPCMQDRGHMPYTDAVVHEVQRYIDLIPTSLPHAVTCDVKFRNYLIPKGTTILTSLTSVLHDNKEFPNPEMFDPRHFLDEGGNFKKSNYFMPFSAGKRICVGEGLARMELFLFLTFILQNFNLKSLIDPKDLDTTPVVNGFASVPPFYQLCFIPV

[9] = molecular target: T2, Heat shock factor protein 1 (Mus musculus, UniProt P38532); assay: HSF1 potentiators in luciferase reporter cells, confirmation, cell-based, NIH3T3, luminescence, dose retest (AID 435004); type: functional;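 also: stress induced by proteasome inhibitor MG132 added 30 min after compound; luciferase reporter driven by HSF1 response element in NIH3T3 cells; actives raise luminescence as potentiators of the MG132 stress response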
T2 sequence (P38532 whole entry): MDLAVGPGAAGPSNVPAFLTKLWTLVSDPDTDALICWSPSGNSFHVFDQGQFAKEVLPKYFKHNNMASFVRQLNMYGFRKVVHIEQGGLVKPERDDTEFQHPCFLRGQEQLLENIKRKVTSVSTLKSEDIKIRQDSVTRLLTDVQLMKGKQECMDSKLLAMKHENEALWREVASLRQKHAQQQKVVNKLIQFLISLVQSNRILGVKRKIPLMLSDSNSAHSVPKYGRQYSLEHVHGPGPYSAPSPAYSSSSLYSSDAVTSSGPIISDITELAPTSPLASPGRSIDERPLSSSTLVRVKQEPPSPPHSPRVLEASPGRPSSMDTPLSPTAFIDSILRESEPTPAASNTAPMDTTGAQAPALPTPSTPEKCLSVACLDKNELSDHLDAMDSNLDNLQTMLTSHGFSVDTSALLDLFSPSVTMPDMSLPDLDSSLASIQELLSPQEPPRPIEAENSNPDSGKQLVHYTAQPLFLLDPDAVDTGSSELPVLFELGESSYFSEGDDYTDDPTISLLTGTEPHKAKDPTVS

[10] = test system: Streptococcus sp. 'group A'; assay: growth inhibition of control SK(-) GAS strain, dose response, counter-screen for streptokinase expression inhibitor project, luminescence, kanamycin, BacTiterGlo, confirmation (AID 1900); type: functional, organism-based
[11] = test system: Streptococcus; assay: Group A Streptococcus viability loss, dose response, counter-screen for streptokinase expression inhibitor project, luminescence, BacTiterGlo (AID 1915); type: functional, organism-based;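 also: potency for reduction of bacterial viability or growth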
[12] = molecular target: T3, Ubiquitin-conjugating enzyme E2 N (Homo sapiens, UniProt P61088); type: functional;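 also: Dose-response confirmation in a TR-FRET assay detecting UBC13-driven polyubiquitin chain formation, inhibition measured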
T3 sequence (P61088 whole entry): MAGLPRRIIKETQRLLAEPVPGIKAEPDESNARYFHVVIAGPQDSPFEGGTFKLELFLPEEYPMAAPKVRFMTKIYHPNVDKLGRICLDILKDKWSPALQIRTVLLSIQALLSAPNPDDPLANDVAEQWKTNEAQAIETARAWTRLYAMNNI

[13] = test system: INS1; assay: beta cell apoptosis inhibitors, cytokine rescue, dose response, luminescence, retest (AID 449756); type: functional, cell-based; details: Rattus norvegicus;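 also: cell death triggered by IL-1 beta plus TNF-alpha plus IFN-gamma mixture; protective hits raise ATP signal compared with cytokine alone wells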
[14] = molecular target: Paired box protein Pax-8 (Homo sapiens, UniProt Q06710); assay: inhibitors of PAX8-driven TPO luciferase reporter, dose response, RMG-I cells, cherry-pick (AID 687027); type: functional, cell-based;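 also: luciferase reporter driven by Pax8 target thyroperoxidase promoter measured by SteadyGlo luminescence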
Paired box protein Pax-8, sequence (Q06710 whole entry): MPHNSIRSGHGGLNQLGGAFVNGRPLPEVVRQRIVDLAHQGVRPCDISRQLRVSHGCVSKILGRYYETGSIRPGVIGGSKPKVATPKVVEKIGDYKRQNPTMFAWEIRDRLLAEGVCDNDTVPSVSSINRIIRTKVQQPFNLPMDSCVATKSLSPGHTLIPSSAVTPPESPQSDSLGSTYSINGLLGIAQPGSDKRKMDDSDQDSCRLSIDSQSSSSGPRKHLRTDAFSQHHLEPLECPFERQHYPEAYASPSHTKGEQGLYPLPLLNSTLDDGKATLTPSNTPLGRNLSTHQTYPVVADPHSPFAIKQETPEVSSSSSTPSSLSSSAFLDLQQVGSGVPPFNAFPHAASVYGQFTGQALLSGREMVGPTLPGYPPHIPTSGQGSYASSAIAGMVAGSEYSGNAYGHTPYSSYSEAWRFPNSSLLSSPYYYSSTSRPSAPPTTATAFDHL

[15] = inhibitors of intracellular T. cruzi replication, confirmation, NIH3T3 host cells, beta-gal luminescence (AID 2044); type: functional, cell-based;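 also: intracellular parasites grown in NIH/3T3 mouse fibroblasts as host cells; luminescent beta-galactosidase reporter signal from transgenic T. cruzi replicating inside host cells; inhibitors lower the luminescence signal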
[16] = cytotoxicity toward NIH3T3 fibroblasts, dose response, counter-screen, cell-based, ATP luminescence, mouse fibroblasts (AID 2010); type: functional;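 also: cells exposed to compound for about 90 hours before reading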
[17] = Luminescence Cell-Based Dose Response HTS to Identify Activators of Luciferase Translation or Activity in H4 […] Cells. [Related pubchem assays: 1829 (Project Summary), 1814 (Primary HTS)]; type: functional

Cytochrome P450 3A4, sequence (P08684 whole entry): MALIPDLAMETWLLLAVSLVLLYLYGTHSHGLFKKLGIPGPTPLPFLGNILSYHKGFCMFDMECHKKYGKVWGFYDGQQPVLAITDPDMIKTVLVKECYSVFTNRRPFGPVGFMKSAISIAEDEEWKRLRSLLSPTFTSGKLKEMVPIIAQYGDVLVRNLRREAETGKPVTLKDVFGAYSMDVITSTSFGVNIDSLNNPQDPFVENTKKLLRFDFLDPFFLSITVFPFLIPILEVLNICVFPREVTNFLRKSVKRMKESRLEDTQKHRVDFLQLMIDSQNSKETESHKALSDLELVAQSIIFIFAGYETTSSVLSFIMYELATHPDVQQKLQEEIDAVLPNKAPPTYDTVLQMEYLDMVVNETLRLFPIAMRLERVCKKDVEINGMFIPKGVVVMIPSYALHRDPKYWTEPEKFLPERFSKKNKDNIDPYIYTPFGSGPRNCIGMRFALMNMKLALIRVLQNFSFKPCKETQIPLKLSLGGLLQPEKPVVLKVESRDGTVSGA

## COCCNc1ccnc(-c2c(C)noc2C)n1
[1]
  AC50: 31.6 µM (inconclusive)

## O=C(Nc1nccs1)c1cc2c(s1)-c1ccccc1OC2
[2]
  EC50: > 120 µM (not active)

## COc1ccc(NC(=O)CCOc2cc(C)ccc2C)cc1S(=O)(=O)N1CCCCC1
[3]
  AC50: 10.4 µM (active)

## COc1ccc(/C=N/NC(=O)c2ccc(-c3ccccc3)cc2)cc1O
[4]
  EC50: > 150 µM (inactive)
[5]
  EC50: 0.036 µM (active)

## C/C(CC(=O)NCc1ccco1)=N\NC(=O)Cc1ccc(Cl)cc1
[6]
  AC50: 25.1 µM (inconclusive)
[7]
  AC50: 20 µM (inconclusive)
[8]
  AC50: 22.4 µM (inconclusive)
[1]
  AC50: 15.8 µM (inconclusive)

## COc1ccc(NC(=O)COc2ccccc2Cc2ccccc2)cc1S(N)(=O)=O
[9]
  EC50: > 260 µM (inactive)

## Oc1ccc(Cl)cc1C1=NNC(c2ccc(Cl)cc2)C1 (stereo not drawn)
[10]
  EC50: 2.78 µM (active)
[11]
  EC50: 5.5 µM (active)

## CCCCn1c(C)c(C(=O)OCC)c2c(CN3CCOCC3)c(O)ccc21
[9]
  EC50: > 260 µM (inactive)

## COc1ccc(NC(=O)CSc2nc(O)cc(=O)n2-c2ccc(OC)cc2)cc1
[10]
  EC50: 13.9 µM (active)
[11]
  EC50: 26 µM (inconclusive)

## O=C(COC(=O)Cn1cnc2ccccc2c1=O)NCc1ccccc1Cl
[12]
  IC50: > 20 µM (inactive)

## Cc1nnc(SCC2=C(C(=O)O)N3C(=O)C(NC(=O)Cn4ncc(Cl)c4C)C3SC2)s1 (stereo not drawn)
[10]
  EC50: < 0.06 µM (active)
[11]
  EC50: 0.117 µM (active)

## COC(=O)C1=C(C)N(Cc2ccccc2)C(NCCc2ccccn2)=N[C@H]1c1cccc(C(F)(F)F)c1
[12]
  IC50: > 20 µM (inactive)

## C#CCOCCOCCOCCNc1nc(N2CCN(C(=O)C([C@@H](C)O)n3cc([C@@H](N)CCCCN)nn3)CC2)nc(N2CCN(C(=O)C([C@@H](C)O)n3cc([C@@H](N)CCCCN)nn3)CC2)n1 (stereo partly drawn)
[12]
  IC50: > 20 µM (inactive)

## N#C/C(=C\NC(=S)c1ccncc1)c1nc2ccccc2s1
[6]
  AC50: 6.31 µM (inconclusive)
[1]
  AC50: 2.51 µM (inconclusive)

## Cc1cc(C(=O)c2ccc3ccccc3c2)c(C)o1
[13]
  AC50: > 260 µM (inactive)

## C[C@@]1(C(NC(=O)Cc2ccccc2)c2ccc(-c3ccccc3)cc2)C[C@H]1C1CCCCC1 (stereo partly drawn)
[1]
  AC50: 15.8 µM (inconclusive)

## CCC/C=C(\CCC)C(NS(=O)(=O)c1ccc(C(F)(F)F)cc1)c1ccc(-c2ccccc2)cc1 (stereo not drawn)
[1]
  AC50: 3.98 µM (inconclusive)

## O=C(N/N=C/c1ccc[nH]1)c1cc2ccccc2cc1O
[4]
  EC50: > 160 µM (inactive)
[5]
  EC50: > 38 µM (not active)

## Cc1ccc(-c2nnc(N(C)C(=O)c3cccnc3)s2)cc1
[7]
  AC50: 10 µM (inconclusive)
[8]
  AC50: 3.16 µM (inconclusive)
[1]
  AC50: 17.8 µM (inconclusive)

## COc1ccc(S(=O)(=O)N(CC(=O)NCC2CCCO2)c2ccc(F)cc2)cc1OC (stereo not drawn)
[6]
  AC50: 10 µM (inconclusive)
[8]
  AC50: 10 µM (inconclusive)

## CC(=O)O[C@H]1CC[C@H]2[C@@H]3CC[C@H]4[C@@H](O)[C@H](O)CC[C@]4(C)[C@H]3CC[C@]12C
[3]
  AC50: > 70 µM (inactive)

## COCCn1c(=O)c(-c2ccc(F)cc2)nc2cnc(OCc3ccccc3)nc21
[6]
  AC50: 20 µM (inconclusive)
[8]
  AC50: 10 µM (inconclusive)
[1]
  AC50: 12.6 µM (inconclusive)

## COc1ccc(Cc2nn3c(O)cc(C(C)C)nc3c2-c2ccccc2)cc1
[10]
  EC50: 1.78 µM (active)
[11]
  EC50: 4.68 µM (active)

## Cc1ccc(N2C(=O)CSC2c2cccnc2)c(Cl)c1 (stereo not drawn)
[13]
  AC50: > 260 µM (inactive)

## Cc1cc(C)cc(-n2nnnc2-c2cn(C)nc2C(F)(F)F)c1
[1]
  AC50: 15.8 µM (inconclusive)

## COc1cc(-c2nnc(NC(=O)c3ccc(S(=O)(=O)N4CCOCC4)cc3)o2)cc(OC)c1OC
[4]
  EC50: > 160 µM (inactive)
[5]
  EC50: 5.71 µM (active)

## O=C(Nc1ccc(Cl)c(Cl)c1)N[C@@H]1CC[C@H](CCn2cc(C3CCCCC3)nn2)O[C@H]1CO
[14]
  AC50: 19.7 µM (active)

## CCCCn1c(SC(C)C(N)=O)nc2cc(C(=O)OC)ccc2c1=O (stereo not drawn)
[6]
  AC50: 8.91 µM (inconclusive)
[8]
  AC50: 3.55 µM (inconclusive)

## COC(=O)[C@@H]1[C@@H](O)[C@@]2(O)c3c(OC)cc(OC)cc3O[C@@]2(c2ccc(OC)cc2)[C@H]1c1ccccc1
[1]
  AC50: 10 µM (inconclusive)

## CCN1CCN(c2cc(C)c3cc(NC(=S)N4CCN(c5ccc(F)cc5)CC4)ccc3n2)CC1
[12]
  IC50: > 20 µM (inactive)

## CN1c2ccc(C#Cc3cccnc3)cc2[C@@H]2[C@@H](CCN2C(=O)Cc2cccnc2)[C@@H]1CO
[14]
  AC50: 57.2 µM (active)

## CCc1ccc(C(=O)NNc2ccc(F)cc2F)cc1
[4]
  EC50: > 150 µM (inactive)
[5]
  EC50: > 38 µM (not active)

## COc1ccc(C2CC(C(F)(F)F)n3nc(C(=O)N(C)Cc4cn(C)nc4C)c(Cl)c3N2)cc1 (stereo not drawn)
[6]
  AC50: 17.8 µM (inconclusive)
[8]
  AC50: 17.8 µM (inconclusive)

## CC(C)NC(=Nc1ccc(Cl)cc1)c1cccnc1
[8]
  AC50: 6.31 µM (inconclusive)
[1]
  AC50: 22.4 µM (inconclusive)

## COc1ccc(CN2CN=C(Nc3nc4ccccc4s3)NC2)cc1
[6]
  AC50: 20 µM (inconclusive)
[1]
  AC50: 10 µM (inconclusive)

## CS(=O)(=O)N1CCC2(CCCN(C(=O)Nc3cccc(C#N)c3)C2)CC1
[1]
  AC50: 25.1 µM (inconclusive)

## CN(C)c1nc(N)c(C(=O)NC(=N)N)nc1Cl
[1]
  AC50: 10 µM (inconclusive)

## Oc1ccc(Cl)cc1Nc1nc(NCC2CCCO2)c2ccccc2n1 (stereo not drawn)
[12]
  IC50: > 20 µM (inactive)

## Cc1cccc(N(C(=O)c2snc(C(N)=O)c2N)C(C(=O)NCC2CCCO2)c2c[nH]c3ccccc23)c1 (stereo not drawn)
[12]
  IC50: > 20 µM (inactive)

## CCN(CC)c1ccc(/C=C/C(=O)c2cccnc2)cc1
[4]
  EC50: > 150 µM (inactive)
[5]
  EC50: 0.065 µM (active)

## COC(=O)c1cc(OC)c(OC)cc1NC(=O)CSc1ccccc1
[6]
  AC50: 20 µM (inconclusive)
[1]
  AC50: 15.8 µM (inconclusive)

## C=CCN1CC[C@@]23c4c5ccc(O)c4O[C@H]2/C(=N\N=C2/CC[C@@]4(O)[C@H]6Cc7ccc(O)c8c7[C@@]4(CCN6CC=C)[C@@H]2O8)CC[C@]3(O)[C@@H]1C5
[1]
  AC50: 31.6 µM (inconclusive) and 25.1 µM (inconclusive)

## CCCn1c(=N)n(CC(=O)c2ccc([N+](=O)[O-])cc2)c2ccccc21
[4]
  EC50: 10.5 µM (active)
[5]
  EC50: > 38 µM (not active)

## Cc1ccccc1OCC(O)CN1CCN(CCN2C(=O)c3cccc4cccc(c34)C2=O)CC1 (stereo not drawn)
[15]
  EC50: 0.851 µM (active)
[16]
  EC50: > 60 µM (inconclusive)
[12]
  IC50: > 20 µM (inactive)

## O=C(Nc1nnc(C2CC2)s1)c1ccc(S(=O)(=O)c2ccccc2)cc1
[6]
  AC50: 0.794 µM (inconclusive)
[8]
  AC50: 7.08 µM (inconclusive)

## COCCCn1c(=S)[nH]c2ncccc2c1=O
[6]
  AC50: 0.00562 µM (inconclusive)
[8]
  AC50: 0.501 µM (inconclusive)

## COc1ccc(/C=C2\OC(=O)c3c(OC)cccc32)cc1OC
[2]
  EC50: 22.4 µM (active)
[17]
  EC50: 7.38 µM (active)
[1]
  AC50: 10 µM (inconclusive)

## CN(C)CC(O)COc1cc2ccccc2cc1C(=O)N1CCCCC1 (stereo not drawn)
[4]
  EC50: > 150 µM (inactive)
